According to patent publication US6620828B2, “Thiazole compounds and pharmaceutical compositions for inhibiting protein kinases and methods for their use” (Agouron Pharmaceuticals, Inc., priority 1999, dated 2003):

Tested on: human umbilical vein endothelial cells (HUVEC)
Test: HUVEC proliferation assay
Format: cell-based
Details: Homo sapiens, HUVEC, crude combinatorial urea library; for inhibition at 0.01 µM: 10 nM, read-out: Inhibition of HUVEC Proliferation % inhibition @ 10 nM; for inhibition at 0.05 µM: 50 nM, read-out: Inhibition of HUVEC Proliferation % inhibition @ 50 nM
Protocol: HUVEC Proliferation Assay
This assay determines the ability of a test compound to inhibit the growth factor-stimulated proliferation of human umbilical vein endothelial cells (“HUVEC”). HUVEC cells (passage 3-4, Clonetics, Corp.) were thawed into EGM2 culture medium (Clonetics Corp) in T75 flasks. Fresh EGM2 medium was added to the flasks 24 hours later. Four or five days later, cells were exposed to another culture medium (F12K medium supplemented with 10% fetal bovine serum (FBS), 60 μg/ml endothelial cell growth supplement (ECGS), and 0.1 mg/ml heparin). Exponentially-growing HUVEC cells were used in experiments thereafter. Ten to twelve thousand HUVEC cells were plated in 96-well dishes in 100 μl of rich, culture medium (described above). The cells were allowed to attach for 24 hours in this medium. The medium was then removed by aspiration and 105 μl of starvation media (F12K+1% FBS) was added to each well. After 24 hours, 15 μl of test agent dissolved in 1% DMSO in starvation medium or this vehicle alone was added into each treatment well; the final DMSO concentration was 0.1%. One hour later, 30 μl of VEGF (30 ng/ml) in starvation media was added to all wells except those containing untreated controls; the final VEGF concentration was 6 ng/ml. Cellular proliferation was quantified 72 hours later by MTT dye reduction, at which time cells were exposed for 4 hours MTT (Promega Corp.). Dye reduction was stopped by addition of a stop solution (Promega Corp.) and absorbance at 595 λ was determined on a 96-well spectrophotometer plate reader.
IC50 values were calculated by curve-fitting the response of A^595 to various concentrations of the test agent; typically, seven concentrations separated by 0.5 log were employed, with triplicate wells at each concentration. For screening compound library plates, one or two concentrations (one well per concentration) were employed, and the % inhibition was calculated by the following formula:
% inhibition=(control−test) divided by (control−starvation) […]
control=A^595 when VEGF is present without test agent test=A^595 when VEGF is present with test agent starvation=A^595 when VEGF and test agent are both absent.

SMILES | inhibition at 0.01 µM [%] | inhibition at 0.05 µM [%]
COc1cccc(C(=O)Nc2cccc(-c3csc(-c4sc(NC(=O)NCC5CCC=CO5)nc4N)n3)c2)c1 (centres unmarked) | -5 | 33
CCN(CC)CCNC(=O)Nc1nc(N)c(-c2nc(-c3cccc(NC(=O)c4cccc(OC)c4)c3)cs2)s1 | -38 | 39
COc1cccc(C(=O)Nc2cccc(-c3csc(-c4sc(NC(=O)NC5CC(C)(C)NC(C)(C)C5)nc4N)n3)c2)c1 | -13 | 29
COc1cccc(C(=O)Nc2cccc(-c3csc(-c4sc(NC(=O)NCCc5ccc(N)cc5)nc4N)n3)c2)c1 | -3 | 3
CCCCN(CCCC)CCCNC(=O)Nc1nc(N)c(-c2nc(-c3cccc(NC(=O)c4cccc(OC)c4)c3)cs2)s1 | -5 | 62
CCN(CC)CCCNC(=O)Nc1nc(N)c(-c2nc(-c3cccc(NC(=O)c4cccc(OC)c4)c3)cs2)s1 | -7 | 45
COc1cccc(C(=O)Nc2cccc(-c3csc(-c4sc(NC(=O)NCC(N)=O)nc4N)n3)c2)c1 | 12 | 25
COc1cccc(C(=O)Nc2cccc(-c3csc(-c4sc(NC(=O)NCC(C)C)nc4N)n3)c2)c1 | -1 | -23
COc1cccc(C(=O)Nc2cccc(-c3csc(-c4sc(NC(=O)NCCc5cccnc5)nc4N)n3)c2)c1 | 35 | 97
COc1cccc(C(=O)Nc2cccc(-c3csc(-c4sc(NC(=O)NCCO)nc4N)n3)c2)c1 | 38 | –
COc1cccc(C(=O)Nc2cccc(-c3csc(-c4sc(NC(=O)N[C@@H](CC(N)=O)C(N)=O)nc4N)n3)c2)c1 | 19 | 23
CNC(=O)CNC(=O)Nc1nc(N)c(-c2nc(-c3cccc(NC(=O)c4cccc(OC)c4)c3)cs2)s1 | 42 | 23
COc1cccc(C(=O)Nc2cccc(-c3csc(-c4sc(NC(=O)NCCc5cncn5C)nc4N)n3)c2)c1 | -15 | 15
CCN1CCCC1CNC(=O)Nc1nc(N)c(-c2nc(-c3cccc(NC(=O)c4cccc(OC)c4)c3)cs2)s1 (centres unmarked) | -29 | 108
COc1cccc(C(=O)Nc2cccc(-c3csc(-c4sc(NC(=O)NC(C)CN(C)C)nc4N)n3)c2)c1 (centres unmarked) | 12 | 28
COc1cccc(C(=O)Nc2cccc(-c3csc(-c4sc(NC(=O)NCCCN5CCCC5)nc4N)n3)c2)c1 | 1 | 101
COc1cccc(C(=O)Nc2cccc(-c3csc(-c4sc(NC(=O)NCCN(C(C)C)C(C)C)nc4N)n3)c2)c1 | 2 | 22
COc1cccc(C(=O)Nc2cccc(-c3csc(-c4sc(NC(=O)NCCCN5CCN(C)CC5)nc4N)n3)c2)c1 | -9 | 67
COc1cccc(C(=O)Nc2cccc(-c3csc(-c4sc(NC(=O)NCCN5CCNC5=O)nc4N)n3)c2)c1 | 0 | 35
COc1cccc(C(=O)Nc2cccc(-c3csc(-c4sc(NC(=O)NCCC(N)=O)nc4N)n3)c2)c1 | 30 | 1
CCN(CC)CCCC(C)NC(=O)Nc1nc(N)c(-c2nc(-c3cccc(NC(=O)c4cccc(OC)c4)c3)cs2)s1 (centres unmarked) | 7 | 68
COc1cccc(C(=O)Nc2cccc(-c3csc(-c4sc(NC(=O)NCCCCN(C)C)nc4N)n3)c2)c1 | -2 | 71
COc1cccc(C(=O)Nc2cccc(-c3csc(-c4sc(NC(=O)NCCCCCCN(C)C)nc4N)n3)c2)c1 | 32 | 24

SMILES | inhibition at 0.01 µM [%] | inhibition at 0.05 µM [%]
COc1cccc(C(=O)Nc2cccc(-c3csc(-c4sc(NC(=O)NCC(C)N(C)C)nc4N)n3)c2)c1 (centres unmarked) | -22 | -3
COc1cccc(C(=O)Nc2cccc(-c3csc(-c4sc(NC(=O)NCCCN5CCCCCC5)nc4N)n3)c2)c1 | 2 | 117
COc1cccc(C(=O)Nc2cccc(-c3csc(-c4sc(NC(=O)NCCCN5CCCCC5)nc4N)n3)c2)c1 | 15 | 49
COc1cccc(C(=O)Nc2cccc(-c3csc(-c4sc(NC(=O)NC5CCS(=O)(=O)C5)nc4N)n3)c2)c1 (centres unmarked) | 9 | 86
COc1cccc(C(=O)Nc2cccc(-c3csc(-c4sc(NCCC(=O)NCC(=O)O)nc4N)n3)c2)c1 | -34 | 7
COc1cccc(C(=O)Nc2cccc(-c3csc(-c4sc(NC(=O)NCC#N)nc4N)n3)c2)c1 | -3 | 3
COc1cccc(C(=O)Nc2cccc(-c3csc(-c4sc(NC(=O)NCC(=O)NO)nc4N)n3)c2)c1 | -1 | 37
COc1cccc(C(=O)Nc2cccc(-c3csc(-c4sc(NC(=O)NCC(=O)O)nc4N)n3)c2)c1 | 42 | 52
COc1cccc(C(=O)Nc2cccc(-c3csc(-c4sc(NC(=O)NCCS(=O)(=O)O)nc4N)n3)c2)c1 | 45 | 46
CCC(O)CNC(=O)Nc1nc(N)c(-c2nc(-c3cccc(NC(=O)c4cccc(OC)c4)c3)cs2)s1 (centres unmarked) | 30 | 135
COc1cccc(C(=O)Nc2cccc(-c3csc(-c4sc(NC(=O)NCC(C)(C)CO)nc4N)n3)c2)c1 | 7 | 88
CCN1CC(NC(=O)Nc2nc(N)c(-c3nc(-c4cccc(NC(=O)c5cccc(OC)c5)c4)cs3)s2)CN1CC | -24 | 45
CCN(CCNC(=O)Nc1nc(N)c(-c2nc(-c3cccc(NC(=O)c4cccc(OC)c4)c3)cs2)s1)c1cccc(C)c1 | -10 | 125
COc1cccc(C(=O)Nc2cccc(-c3csc(-c4sc(NC(=O)NCC(=N)N)nc4N)n3)c2)c1 | 27 | 46
COc1cccc(C(=O)Nc2cccc(-c3csc(-c4sc(NC(=O)NCC(C)(C)C)nc4N)n3)c2)c1 | 44 | 34
COc1cccc(C(=O)Nc2cccc(-c3csc(-c4sc(NC(=O)NCC5(O)CCCCC5)nc4N)n3)c2)c1 | 4 | 2
COc1cccc(C(=O)Nc2cccc(-c3csc(-c4sc(NC(=O)NCCc5c[nH]cn5)nc4N)n3)c2)c1 | 1 | -43
COc1cccc(C(=O)Nc2cccc(-c3csc(-c4sc(NC(=O)NCS(=O)(=O)O)nc4N)n3)c2)c1 | -8 | 8
COc1cccc(C(=O)Nc2cccc(-c3csc(-c4sc(NC(=O)NCCCN(C)c5ccccc5)nc4N)n3)c2)c1 | 17 | 98
COc1cccc(C(=O)Nc2cccc(-c3csc(-c4sc(NC(=O)NCc5ccc(S(N)(=O)=O)cc5)nc4N)n3)c2)c1 | 26 | 36
COc1cccc(C(=O)Nc2cccc(-c3csc(-c4sc(NC(=O)NCCCN(CCO)CCO)nc4N)n3)c2)c1 | 2 | 65
COc1cccc(C(=O)Nc2cccc(-c3csc(-c4sc(NC(=O)NCCc5ccncc5)nc4N)n3)c2)c1 | -5 | 97
